Key:
Assay type in all cases: cell-based, Human
U251 cells = test: Cell viability assay (Cell Counting Kit-8), U251; details: for IC50: 72 hr, CCK-8, mean ± SEM
Description: Cell viability was determined by using a Cell Counting Kit‐8 (Dojindo, Japan). Briefly, cells were harvested from flasks and plated in 96‐well cell culture plates at 5 × 10^3 per well and cultured overnight. […] Control cells were treated with cell culture medium and measured at the same time point as treatment groups. CCK‐8 solution (10 μl) was added to each well of the 96‐well plates, and the cultures were incubated for 30 min at 37°C. Absorbance at 450 nm was measured using an automatic microplate reader (Molecular Devices, San Jose, CA, USA).
Figure 2 Effect of the Na^+/Ca^2+ exchanger (NCX) blockers on viability of human glioblastoma cell lines. (a, b) Viability of adult glioblastoma cell lines (U87 and U251) after exposure to NCX blockers bepridil, KB‐R7943, SEA0400, SN‐6, or YM244769 at 0–100 μM for 72 hr. n = 5 independent tests per group. (c) Viability of paediatric glioblastoma cell line SF188 after 72‐hr incubation with the same NCX blockers at 0–100 μM. n = 5 independent tests per group. (d) For U87, U251, and SF188 cell lines, concentration of the NCX blockers required to produce half maximal inhibition (IC50: μM, mean ± SEM) of cell viability.

forward NCX = test: Whole-cell patch-clamp recording of forward-mode NCX currents in U87 cells; details: forward NCX current measured at −110 mV, mean ± SEM, n = 4, read-out: IC50, blocking forward NCX (currents)
Description: Whole‐cell patch‐clamp recording was performed using a Multiclamp 700B amplifier (Molecular Devices, Foster City, CA, USA) at room temperature. Voltage protocols were provided and current recorded via a DigiData‐1550B interface (Molecular Devices) controlled by pClamp 10 Software (Molecular Devices, RRID:SCR_011323). […] Internal solution consisted of (in mM): 120 CsCl, 20 NaCl, 2 MgCl2, 13 CaCl2, 2 Na2ATP, 20 BAPTA, and 10 HEPES at a pH 7.2. […] Series resistance was compensated by 75–85%. Linear leak and residual capacitance currents were subtracted online using a P/4 protocol of the pClamp 10. For the recording of the membrane currents related to the NCX, cells were held at −50 mV and depolarized to +60 mV, and then a voltage ramp starting from +60 to −120 mV was applied for 1,000 ms before returning back to −50 mV. The reverse and forward NCX currents were measured at +50 and −110 mV holding potentials respectively (Molinaro et al., 2008; Rahman, Inman, Kiss, & Janssen, 2012; Song, Chen, & Yu, 2014). Data were filtered at 3 KHz and digitized at sampling rates of 20 KHz. For drug application, cells were perfused with a VC‐6 Six Channel Perfusion Valve Control Systems (Warner Instruments, Greenwich, CT, USA) connected to a gravity‐fed perfusion systems.
Data are expressed as mean ± SEM and analysed by Prism 7 software, La Jolla, CA (GraphPad Prism, RRID:SCR_002798). The data and statistical analysis comply with the recommendations of the British Journal of Pharmacology on experimental design and analysis in pharmacology. Concentrations of the NCX blockers (IC50) exerting half‐maximal inhibition of NCX currents were obtained by fitting the concentration–response with the equation: I/I0*100%=Bottom+Top−Bottom/1+10^((^Log^IC50−C)*n) , where I 0 and I are current amplitudes measured in control and in the presence of NCX blockers, C is the logarithm of concentration, and n is the Hill coefficient. The statistical difference between two independent groups was analysed by Student's parametric unpaired t test. And the original data of more than two groups were assessed by the parametric one‐way ANOVA followed by a Tukey's post hoc test. The data for cell viability and Western blot were usually normalized to the control group, and were thus analysed by the non‐parametric Kruskal–Wallis test followed by a Dunn's post hoc test. Differences were considered to be significant when P < .05. Post hoc tests were conducted when the F value achieved the necessary level (P < .05) and there was no significant variance inhomogeneity.
We characterized the membrane currents associated with NCX activity in glioblastoma cells using whole‐cell patch‐clamp recording. […] The NCX current in its reverse mode (Ca^2+ entry) was measured at +50, and the forward‐mode current (Ca^2+ exit) was measured at −110 mV. The Ni^2+ (10 mM) was employed to inhibit and identify the NCX currents in its either reverse or forward mode as previously reported (Maack, Ganesan, Sidor, & O'Rourke, 2005).

[Na^+]i in U87 cells = Na+ imaging (ANG-2 AM) of U87 cells; details: bepridil 50 μM, KB‐R7943 50 μM, CB‐DMB 4 μM
Description: Cells were cultured in 96‐well plates at 8 × 10^3 per well and loaded with the cell membrane‐permeable Ca^2+ dye Fluo‐4 AM (5 μM) in 100‐μl HEPES‐buffered solution for 50 min. The solution contained (mM): 135 NaCl, 3 KCl, 2 CaCl2, 1 MgCl2, 10 glucose, and 10 HEPES, supplemented with 1% FBS at pH 7.4. To prepare the Ca^2+‐free solution, 2‐mM CaCl2 was replaced with 1‐mM EGTA in the HEPES‐buffered solution. The 96‐well plate containing the Fluo‐4 AM‐loaded cells was mounted in a Leica TCS SP8 confocal system (Leica Microsystems, Wetzlar, Germany). The confocal microscope armed with 488‐nm laser light was employed to excite the dynamic fluorescent signals in time and synchronously, while test regents were added to cells. To do Na^+ imaging, Fluo‐4 AM was replaced with the cell membrane‐permeable Na^+ dye Asante NaTrium Green‐2 AM (ANG‐2 AM) at 5 μM, which was excited by 514‐nm laser light. Visual inspection and fluorescent imaging were carried out at room temperature. The imaging data were analysed with the software https://leica-las-af-lite.software.informer.com/ 2.5 (Leica). The imaging traces shown are representative of at least three separate experiments; 12–18 cells were imaged in each experiment.

Row | IC50 (U251 cells) | Compound | Effect on growth (viability) of U251 cells (U251 cells; 25 μM, 48 hr) | IC50 (U251 cells; Homo sapiens, U-251) | IC50 (forward NCX) | Effect on intracellular Na+ [Na+]i level ([Na^+]i in U87 cells)
1 | – | CC(C)COCC(CN(Cc1ccccc1)c1ccccc1)N1CCCC1 (stereo not shown) [Bepridil, N‐benzyl‐N‐(3‐isobutoxy‐2‐pyrrolidin‐1‐yl‐propyl)aniline] | markedly suppressed growth | 14.9 ± 1.1 µM | 19.1 ± 1.2 µM | did not change
2 | 29.2 ± 1.1 µM | CS(=O)(=O)O.N=C(N)SCCc1ccc(OCc2ccc([N+](=O)[O-])cc2)cc1 [KB‐R7943, 2‐[4‐[(4‐nitrophenyl)methoxy]phenyl]ethyl ester carbamimidothioic acid methanesulfonate] | – | – | 32.3 ± 1.3 µM | slightly decreased

Reference: article PMC6609550, “Blockade of the forward Na^+/Ca^2+ exchanger suppresses the growth of glioblastoma cells through Ca^2+‐mediated cell death” (British Journal of Pharmacology, 2019)
